According to US8946219B2, “Combination therapy with a compound acting as a platelet ADP receptor inhibitor” (Portola Pharmaceuticals, Inc., priority 2007, dated 2015):

Assays:
[1] = tested on: whole human blood perfused over type III collagen (thrombus formation); assay: Real time perfusion chamber thrombosis assay (Example 3); type: cell-based; details: read-out: inhibition of thrombosis
Excerpt: The real time perfusion chamber assay couples the features of animal thrombosis models that use intravital microscopy to those of perfusion chamber technology in order to produce an assay suited to monitoring drug activity in clinical trials. This assay perfuses whole blood through capillaries at arterial rates of shear, exposing the blood to thrombogenic type III collagen. Platelets are labeled with a fluorescent dye (rhodamine 6 G) prior to perfusion such that analysis of the thrombus deposition can be performed by measurement of fluorescence intensity inside the perfusion chamber. Quantification is performed by analysis of the thrombus height (fluorescence intensity (number of pixels)/total area (μm^2)).

[2] = tested on: ADP induced platelet aggregation in human platelet rich plasma; assay: ADP induced platelet aggregation; type: cell-based
[3] = tested on: platelet thrombus formation on collagen-coated capillary (type I collagen); assay: Perfusion assay, non-anticoagulated whole blood, type I collagen, 1000 s^−1 (Example 6); type: cell-based, human; details: Compound A alone at 10 μM
Procedure: After perfusion the size of the platelet thrombus was measured by fluorescence.

[4] = tested on: thrombosis on mouse mesenteric arteries; assay: Mouse mesenteric artery thrombosis model, intravital microscopy, 10% FeCl3 (Example 14); type: in vivo, C57B16J mice
Procedure: Thrombosis on mouse mesenteric arteries (shear rate 1000-1300 s^−1) was performed and recorded as previously described with minor modifications. (Andre, P., et al., Anticoagulants (thrombin inhibitors) and aspirin synergize with P2Y12 receptor antagonism in thrombosis. Circulation, 2003. 108(21): p. 2697-703.) Platelets were labeled in situ using rhodamine 6G (0.2 mg/mL) administered through the tail vein 10 min before visualization of the arteries. Vessel-wall injury was triggered by a 1×1-mm filter paper saturated with a 10% FeCl3 solution. After 5 minutes, the filter paper was removed and mesenteric arteries rinsed with warmed saline (37° C.). Platelet vessel-wall interactions were recorded for 40 additional min or until full occlusion occurred and persisted for more than 40 seconds. C57B16J mice were orally gavaged with vehicle control, compound A (0.83, 2.5, 7.5, 20, 60 mg/kg) or betrixaban (2, 4, 10 mg/kg) two hours prior to vascular injury. Thrombosis was analyzed in real time using Simple PCI software. (Andre, P., et al., P2Y12 regulates platelet adhesion/activation, thrombus growth, and thrombus stability in injured arteries. J Clin Invest, 2003. 112(3): p. 398-406.) The fluorescence intensity was recorded at a rate of 2 Hz for 40 minutes and plotted over time. Time to occlusion (cessation of blood flow) is analyzed.
Plasma concentrations of Compound A and betrixaban were determined on blood draw collected 2 min post-occlusion or 42 min after start of vascular injury.

[5] = tested on: thrombosis on mouse mesenteric arteries; assay: Mouse mesenteric artery thrombosis model, 5% FeCl3 (Example 13, present tense); type: in vivo, C57B16J mice; details: for antithrombotic activity in the intravital microscopy thrombosis model in mice: other factor Xa inhibitors, expected
Procedure: Thrombosis on mouse mesenteric arteries (shear rate 1000-1300 s^−1) is performed and recorded as previously described with minor modifications, as described in Andre, P. et al., Anticoagulants (thrombin inhibitors) and aspirin synergize with P2Y12 receptor antagonism in thrombosis. Circulation, 2003, 108(21):2697-703. Platelets are labeled in situ using rhodamine 6G (0.2 mg/mL) administered through the tail vein 10 mins before visualization of the arteries. Vessel-wall injury is triggered by a 1×1-mm filter paper saturated with a 5% FeCl3 solution. After 5 minutes, the filter paper is removed and mesenteric arteries rinsed with warmed saline (37° C.). Platelet vessel-wall interactions are recorded for 40 additional mins or until full occlusion occurs and persists for more than 40 seconds. C57B16J mice are orally gavaged with vehicle control, Compound A (7.5, 20, 60 mg/kg) or betrixaban (4, 40, 400 mg/kg) two hours prior to vascular injury. Thrombosis is analyzed in real time using Simple PCI software, as described in Andre, P. et al., P2Y12 regulates platelet adhesion/activation, thrombus growth, and thrombus stability in injured arteries. J Clin Invest, 2003, 112(3):398-406. The fluorescence intensity is recorded at a rate of 2 Hz for 40 minutes and plotted over time. Time to occlusion (cessation of blood flow) is analyzed.

[6] = tested on: thrombin generation in platelet rich plasma; assay: Platelet-initiated thrombin generation assay (Example 5); type: cell-based, human
Procedure: Whole blood from healthy volunteer donors was collected by venipuncture and drawn into 3.2% trisodium citrate (Vacutainer, Becton Dickinson) for anticoagulation. Platelet rich plasma was prepared by centrifugation and the platelet count was adjusted to 150,000/μL. In a 96 well plate, platelets were activated by addition of convulxin (200 ng/mL) and incubation at 37° C. for 3 mins. Subsequent to platelet activation, thrombin generation was initiated by addition of 23 pM tissue factor (Innovin, Dade Behring) and 15 mM calcium. Thrombin activity was monitored by cleavage of the specific fluorogenic substrate (Z-gly-gly-arg-AMC, Bachem) in a fluorescence plate reader.

[7] = tested on: thrombus formation under arterial shear conditions; assay: Perfusion assay, blood collected in bivalirudin, type III collagen, 1600 s^−1 (Example 8); type: cell-based; details: bivalirudin alone, 12 μg/mL
Procedure: As an example of additive antithrombotic benefit achieved when Compound A was combined with a direct thrombin inhibitor, such as bivalirudin, in the following assay, blood was collected in 12 μg/mL bivalirudin (standard therapeutic concentration), incubated with various concentrations of Compound A (0.1, 1 or 10 μM) for 20 mins in the presence of rhodamine 6G (which fluorescently labels platelets), followed by perfusion through a glass capillary coated with collagen (type III) at a fixed shear rate (1600 s^−1). […] FIG. 7 illustrates the combined antithrombotic benefit achieved by the combination of Compound A and bivalirudin.

[8] = betrixaban 10 mg/kg, oral gavage

CNc1cc2[nH]c(=O)n(-c3ccc(NC(=O)NS(=O)(=O)c4ccc(Cl)s4)cc3)c(=O)c2cc1F [Compound A]
inhibition at 1.1 µM [1]: 23% | concentration capable of maximal inhibition of platelet aggregation [2]: 10 µM | IC50 ([2]; Platelet, platelets derived from human donors, n=19, read-out: half maximal inhibition of ADP induced platelet aggregation): 4.7 ± 5.1 µM | platelet thrombus size [3]: no significant effect | plasma concentration that did not prevent occlusion ([4]; PK/PD, FIG. 13): below 1 μg/mL | plasma concentrations of non-effective doses ([4]; PK/PD, FIG. 13): below 200 ng/mL | plasma levels that prevented vascular occlusion ([4]; PK/PD, FIG. 13): > 1 µg/mL

COc1ccc(-n2nc(C(N)=O)c3c2C(=O)N(c2ccc(N4CCCCC4=O)cc2)CC3)cc1 [apixaban, 1-(4-methoxyphenyl)-7-oxo-6-(4-(2-oxopiperidin-1-yl)phenyl)-3a,4,5,6,7,7a-hexahydro-1H-pyrazolo[3,4-c]pyridine-3-carboxamide]
antithrombotic activity in the intravital microscopy thrombosis model in mice [5]: significant antithrombotic activity

COc1ccc(NC(=O)c2ccc(C(=N)N(C)C)cc2)c(C(=O)Nc2ccc(Cl)cn2)c1 [betrixaban, [2-({4-[(dimethylamino)iminomethyl]phenyl}carbonylamino)-5-methoxyphenyl]-N-(5-chloro(2-pyridyl))carboxamide]
concentration adequate for equivalent inhibition of thrombin generation as a therapeutic anticoagulant (Pentasaccharide fondaparinux) [6]: 31.25 nM | time for appearance of first thrombus [4, 8]: significantly delayed | time to occlusion [4, 8]: significantly delayed | effect in the thrombosis model ([4]; betrixaban 2 and 4 mg/kg, oral gavage): non-effective | non-effective doses ([5]; betrixaban): below 100 ng/mL

O=C(NC[C@H]1CN(c2ccc(N3CCOCC3=O)cc2)C(=O)O1)c1ccc(Cl)s1 [rivaroxaban, (5S)-5-chloro-N-((2-oxo-3-(4-(3-oxomorpholino)phenyl)oxazolidin-5-yl)methyl)thiophene-2-carboxamide]
antithrombotic activity in the intravital microscopy thrombosis model in mice [5]: significant antithrombotic activity

bivalirudin
inhibition of the thrombotic process [7]: did not significantly inhibit the thrombotic process
